Read-outs that look alike come from different tables or passages of the source.
Legend:
[1] = test system: K562/P-gp cells; assay: Drug resistance level: IC50 of anticancer drugs in K562/P-gp; assay type: cell-based, human
Method: (§1) In the Western blot membrane, the total P-gp and β-actin expression in each lane was quantified with ImageJ software. The relative P-gp expression was an intensity ratio of P-gp band relative to the β-actin band. The relative P-gp expression of the resistant cell line relative to its respective wild type was presented as a bar chart. The plasma membrane P-gp levels of LCC6MDR and K562/P-gp relative to their wild types were determined through flow cytometry using antihuman P-gp-PE antibodies. (B) LCC6MDR and LCC6. (C) K562/P-gp and K562. (D) the drug resistance levels of three P-gp-overexpressing cell lines and their wild types were studied. The 3 pairs of cell lines were incubated with anticancer drugs paclitaxel (PTX), doxorubicin (DOX), and vincristine (VCR) for 3 days, and the % of cell survival was then determined. Their IC50 (nM) values were calculated using Prism 5.0. RF (relative fold) was a ratio of IC50 of anticancer drugs in a P-gp-overexpressing cell line relative to its respective wild type. N = 3 independent experiments. […] All cell lines were counterstained with DAPI. (E) LCC6 and LCC6MDR, (F) P388 and P338ADR, and (G) K562 and K562/P-gp. Bar = 8 µm. / = not determined.

[2] = test system: K562 cells; assay: Drug resistance level: IC50 of anticancer drugs in K562; assay type: cell-based; conditions: Homo sapiens, K562, 72 h; 3 days incubation
Method: as §1

[3] = test system: P-gp; assay: EC50 for reversing drug resistance in P388ADR cells (cell proliferation assay)
[4] = Pharmacokinetics of methylated catechin derivatives in plasma; assay type: in vivo, BALB/c mice; conditions: BALB/c, mouse; for AUC(0-inf): read-out: AUC0-infinity (converted)
Method: Figure 4 Pharmacokinetics of methylated catechin derivatives and their effects on the PK of PTX. BALB/c mice were i.v. injected with 10 mg/kg or i.p. injected with 30 mg/kg of modulators. At 10, 30, 60, 180, 420, 840, and 1080 min postadministration, animals were sacrificed to collect their blood, and then the plasma concentration of modulator was determined using UPLC-MS/MS. The % of bioavailability of each modulator injected through i.p. injection route was calculated by comparing it to its plasma level when injected via i.v. injection. […] (E) Pharmacokinetic (PK) profiles of 4 potent methylated catechin derivatives were summarized. (F) The effect of modulators (GC51, EC31, or C25) on the PK of PTX was firstly determined through i.p. injection of modulator at 30 mg/kg 1 h prior to i.v. injection of 12 mg/kg PTX. At 10, 30, 60, 120, 240, and 420 min postadministration of PTX, animals were sacrificed. Plasma level of PTX was quantified through LC/MSMS. The dashed line indicates the corresponding EC50 of modulator in vitro for reversing PTX resistance. […] There were 3 mice at each time point. All pharmacokinetic parameters were calculated with the pharmacokinetic software Summit® PK solution. Two-tailed test was conducted for the AUC value of PTX alone and cotreatment. […] N.S. = not significant. / = not applicable.
In group 1, BALB/c mice were injected intravenously (i.v.) with 10 mg/kg of modulator, and their blood was collected at 10, 30, 60, 120, 240, and 480 min postadministration. In group 2, BALB/c mice were injected intraperitoneally (i.p.) with 30 mg/kg of modulator, and their blood was collected at 10, 30, 60, 180, 420, 840, and 1080 min postadministration.
The pharmacokinetics of PTX was studied with or without the coadministered modulator. PTX (12 mg/kg i.v.) alone was injected into the BALB/c mice. For the combination study, modulator (30 mg/kg i.p.) was injected 1 h before injecting PTX (12 mg/kg i.v.). The blood was collected at 10, 30, 60, 120, 240, and 420 min after PTX administration. Blood samples were spun at 14,000 rpm for 10 min at 4 °C to collect plasma supernatant. Plasma concentration of methylated catechin derivatives or PTX was determined through UPLC-QQQ-MS as described in Section 4.9. Pharmacokinetic parameters were analyzed with PK Solutions 2.0 (Summit Research Service, Ashland, OH, USA).

[5] = test system: P-gp; parameters: method as in PMID 25985195, PMID 34597896; conditions: cited from earlier work
[6] = test system: P-gp; assay: DOX efflux in P388ADR cells; assay type: cell-based, mouse; conditions: 1 µM modulator; after 180 min of efflux; P388ADR preloaded with 20 µM DOX
Method: Figure 2 Effect of methylated catechin derivatives on intracellular DOX accumulation and DOX efflux in the P-gp-overexpressing cancer cells. […] Then, the cells were washed, and the intracellular DOX level was measured using flow cytometer. (A) LCC6MDR, (B) P388ADR, and (C) K562/P-gp. […] (D) In the efflux study, P388ADR cells were firstly incubated with 20 µM DOX for 45 min. […] At 60, 120, and 180 min, the cells were harvested, and the intracellular DOX level was measured. At 180 min, ** represents p < 0.01, and *** represents p < 0.001, both being relative to P388ADR incubated with DMSO only. […] N = 3 independent experiments. DMSO was used as a solvent control, and the highest amount used was 0.5%.
We investigated if methylated catechin derivatives could inhibit P-gp-mediated drug efflux in P-gp-overexpressing cells. […] Without a modulator, intracellularly, the DOX level was maintained at 80% and 11% after 180 min for P388 and P388ADR cells, respectively (Figure 2D). […] After 180 min of efflux, the intracellular DOX level could be maintained at 61% (p < 0.001), 59% (p < 0.01), 44 % (p < 0.001), and 37%, respectively (Figure 2D).

[7] = test system: MRP1; conditions: Cpds at 1 μM; IC50 of DOX without/with modulator; cited from earlier work
[8] = biological target: T1, P-gp (Homo sapiens, UniProt P08183); assay: Vanadate-sensitive P-gp ATPase activity assay (P-gp-Glo); conditions: 70 µM
[9] = test system: fibroblast cells; parameters: method as in PMID 25985195, PMID 34597896; conditions: cited from earlier work
[10] = biological target: T1, P-gp; assay: EC50 for reversing drug resistance in K562/P-gp cells (cell proliferation assay); conditions: EC50 for Reversing MDR
[11] = biological target: T1, P-gp; assay: EC50 for reversing drug resistance in LCC6MDR cells (cell proliferation assay); conditions: EC50 for Reversing MDR, LCC6MDR
[12] = biological target: T1, P-gp; parameters: expressed in transfected cells; host or cells: MDA435/LCC6MDR (human breast cancer line, gift of Dr. Robert Clarke); conditions: Cpds at 1 μM; IC50 of PTX without/with modulator; cited from earlier work
[13] = read-out: EC50 for Reversing MDR, DOX Resistance, P388ADR, concentration that reduces IC50 of DOX by half
[14] = read-out: EC50 for Reversing MDR, PTX Resistance, P388ADR, concentration that reduces IC50 of PTX by half
[15] = DOX Resistance, K562/P-gp, concentration that reduces IC50 of DOX by half
[16] = VCR Resistance, K562, concentration that reduces IC50 of VCR by half, column head prints K562
[17] = DOX Resistance, concentration that reduces IC50 of DOX by half
[18] = PTX Resistance, concentration that reduces IC50 of PTX by half

T1 sequence (P08183 whole entry): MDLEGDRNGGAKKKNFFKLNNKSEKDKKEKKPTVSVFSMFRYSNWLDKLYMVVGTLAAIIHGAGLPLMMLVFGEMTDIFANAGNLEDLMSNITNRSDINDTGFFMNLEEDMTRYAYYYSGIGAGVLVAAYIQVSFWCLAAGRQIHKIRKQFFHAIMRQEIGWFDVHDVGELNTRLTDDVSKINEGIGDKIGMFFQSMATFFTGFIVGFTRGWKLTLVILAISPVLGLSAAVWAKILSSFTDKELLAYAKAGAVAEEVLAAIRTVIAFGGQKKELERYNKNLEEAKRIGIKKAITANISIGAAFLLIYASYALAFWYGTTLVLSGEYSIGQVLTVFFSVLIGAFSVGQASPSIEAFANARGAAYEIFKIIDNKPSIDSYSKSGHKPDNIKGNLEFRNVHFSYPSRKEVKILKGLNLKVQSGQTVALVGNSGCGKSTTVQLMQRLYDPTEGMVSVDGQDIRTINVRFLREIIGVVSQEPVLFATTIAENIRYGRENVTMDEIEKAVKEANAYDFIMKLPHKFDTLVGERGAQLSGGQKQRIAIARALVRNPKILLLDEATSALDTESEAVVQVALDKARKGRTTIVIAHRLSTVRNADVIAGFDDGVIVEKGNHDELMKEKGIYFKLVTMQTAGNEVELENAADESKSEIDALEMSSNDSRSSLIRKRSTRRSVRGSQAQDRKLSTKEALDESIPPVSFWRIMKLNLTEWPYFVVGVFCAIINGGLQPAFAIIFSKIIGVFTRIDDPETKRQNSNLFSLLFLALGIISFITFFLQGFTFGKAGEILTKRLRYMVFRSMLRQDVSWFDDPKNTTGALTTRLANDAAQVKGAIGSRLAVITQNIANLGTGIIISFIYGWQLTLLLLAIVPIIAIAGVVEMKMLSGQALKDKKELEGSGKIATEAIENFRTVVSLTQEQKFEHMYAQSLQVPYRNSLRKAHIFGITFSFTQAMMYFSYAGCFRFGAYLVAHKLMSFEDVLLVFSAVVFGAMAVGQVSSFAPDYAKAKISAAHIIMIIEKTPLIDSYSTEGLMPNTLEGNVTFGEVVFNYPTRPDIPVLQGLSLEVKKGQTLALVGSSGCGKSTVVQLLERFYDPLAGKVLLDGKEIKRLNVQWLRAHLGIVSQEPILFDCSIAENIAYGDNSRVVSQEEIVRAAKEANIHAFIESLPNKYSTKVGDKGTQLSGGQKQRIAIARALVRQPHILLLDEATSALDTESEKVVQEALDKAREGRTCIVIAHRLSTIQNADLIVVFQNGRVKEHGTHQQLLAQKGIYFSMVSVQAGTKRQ

CC[C@]1(O)C[C@H]2CN(CCc3c([nH]c4ccccc34)[C@@](C(=O)OC)(c3cc4c(cc3OC)N(C=O)[C@H]3[C@@](O)(C(=O)OC)[C@H](OC(C)=O)[C@]5(CC)C=CCN6CC[C@]43[C@@H]65)C2)C1 [VCR, vincristine]
IC50 ([1]; Homo sapiens, K562, 72 h, 3 days incubation): 84.1 ± 6.4 nM | RF (relative fold) ([1]; IC50 in K562/P-gp relative to K562): 168.2 | IC50 [2]: 0.5 ± 0.1 nM

COc1cc(OC)c2c(c1)OC(c1cc(OC)c(OC)c(OC)c1)C(OC(=O)C=Cc1cc(OC)c(OC)c(OC)c1)C2 (centres unmarked) [EGC23]
EC50 [3, 13]: […] | EC50 [3, 14]: […] | AUC(0-t) ([4]; ip, 30 mg/kg): 7000 ng·h/mL | Cmax ([4]; ip, 30 mg/kg): 2210 ng/mL | Tmax ([4]; ip, 30 mg/kg): 1 h | half-life ([4]; ip, 30 mg/kg): 2.45 h | AUC(0-inf) ([4]; ip, 30 mg/kg): 7090 ng·h/mL | AUC(0-t) ([4]; iv, 10 mg/kg): 3190 ng·h/mL | half-life ([4]; iv, 10 mg/kg): 0.538 h | AUC(0-inf) ([4]; iv, 10 mg/kg): 3210 ng·h/mL

COc1cc(OC)c2c(c1)O[C@H](c1ccc(OC)c(OC)c1)[C@@H](OC(=O)c1ccc(F)c(NC(=O)c3cc(OC)c(OC)c(OC)c3)c1)C2 [C25]
effect on plasma membrane level of P-gp [5]: did not affect | EC50 [3, 13]: 260 ± 60 nM | EC50 [3, 14]: 216 ± 10 nM | Relative intracellular DOX level (%) [6]: 37% | 2008MRP1 MRP1-modulating activity RF (relative fold) [7]: 1.2 | AUC(0-t) ([4]; ip, 30 mg/kg): 21200 ng·h/mL | Cmax ([4]; ip, 30 mg/kg): 5260 ng/mL | Tmax ([4]; ip, 30 mg/kg): 1 h | half-life ([4]; ip, 30 mg/kg): 3.12 h | AUC(0-inf) ([4]; ip, 30 mg/kg): 21600 ng·h/mL | AUC(0-t) ([4]; iv, 10 mg/kg): 8870 ng·h/mL | half-life ([4]; iv, 10 mg/kg): 0.85 h | AUC(0-inf) ([4]; iv, 10 mg/kg): 8890 ng·h/mL | P-gp ATPase activity, fold change relative to basal [8]: ≤ 1.6 fold | IC50 [9]: > 100000 nM | EC50 [10, 15]: 93 ± 21 nM | EC50 [10, 16]: 60 ± 12 nM | EC50 [11, 17]: 180 ± 18 nM | EC50 [11, 18]: 91 ± 5 nM | LCC6MDR P-gp-modulating activity RF (relative fold) [12]: 84.7

COc1cc(OC)c2c(c1)O[C@H](c1cc(OC)c(OC)c(OC)c1)[C@@H](OC(=O)c1ccc(F)c(NC(=O)c3cc(OC)c(OC)c(OC)c3)c1)C2 [GC51]
EC50 [3, 13]: 335 ± 15 nM | EC50 [3, 14]: 496 ± 12 nM | Relative intracellular DOX level (%) [6]: 59% | 2008MRP1 MRP1-modulating activity RF (relative fold) [7]: 3.0 | AUC(0-t) ([4]; ip, 30 mg/kg): 24500 ng·h/mL | Cmax ([4]; ip, 30 mg/kg): 6120 ng/mL | Tmax ([4]; ip, 30 mg/kg): 1 h | half-life ([4]; ip, 30 mg/kg): 3.83 h | AUC(0-inf) ([4]; ip, 30 mg/kg): 25700 ng·h/mL | AUC(0-t) ([4]; iv, 10 mg/kg): 13000 ng·h/mL | half-life ([4]; iv, 10 mg/kg): 1.52 h | AUC(0-inf) ([4]; iv, 10 mg/kg): 13600 ng·h/mL | EC50 [10, 15]: 129 ± 36 nM | EC50 [10, 16]: 77 ± 7 nM | EC50 [11, 17]: 233 ± 36 nM | EC50 [11, 18]: 82 ± 14 nM | LCC6MDR P-gp-modulating activity RF (relative fold) [12]: 52.6

From publication PMC10002220, “In Vivo Reversal of P-Glycoprotein-Mediated Drug Resistance in a Breast Cancer Xenograft and in Leukemia Models Using a Novel, Potent, and Nontoxic Epicatechin EC31” (International Journal of Molecular Sciences, 2023)
